Measurements reported in patent US5573908A, “Adrenergic receptor as a proto-oncogene” (Duke University, priority 1993, dated 1996).
Where “and” joins values, the source holds several entries; their conditions need not be identical. Equal values may be shown once.

What was measured:
[1] = tested on: RAT-1 fibroblasts transfected with α1B -ADR c-DNA; test: Focus formation in RAT-1 fibroblasts transfected with α1B-ADR c-DNA; type: cell-based
Procedure: Transfection was carried out as follows: RAT-1 fibroblasts were seeded at a density of 2×10^5 cells in Dulbecco's modified Eagle's medium (DMEM) (Gibco) containing 5% fetal bovine serum (FBS) in 100 mm dishes. […] After 16 hours, the DNA precipitate was removed, the cells washed and grown for 24 hours in complete medium. Cells were split 1:5, allowed to attach overnight and then cultured in DMEM with 5% FBS alone, supplemented with 10 μM norepinephrine (NE) or G418 (300 μg/ml). Dishes were supplemented with NE daily, and fed every 3 days with fresh medium.

[2] = tested on: NIH 3T3 fibroblasts transfected with ras c-DNA; test: Focus formation in NIH 3T3 fibroblasts transfected with ras c-DNA; type: cell-based; conditions: NIH 3T3 transfected with ras; 10 μM NE supplemented daily, 5% FBS (Table 1)
Procedure: Transfection was carried out as follows: RAT-1 fibroblasts were seeded at a density of 2×10^5 cells in Dulbecco's modified Eagle's medium (DMEM) (Gibco) containing 5% fetal bovine serum (FBS) in 100 mm dishes. Cells were grown overnight, then transfected with 10 μg of DNA (expression vector alone [pZIP-NeoSV(X)1] or containing the α1B-ADR, α1B -ADR mutant [discussed in Example 3 below] or activated Ha-ras c-DNAs) by calcium phosphate precipitation (B. Cullen, Methods Enzymol. 152, 684 (1987)). The α1B -ADR used herein was the hamster α1B -ADR described in S. Cotecchia et al., Proc. Natl. Acad. Sci. USA 85, 7159-7163 (1988). After 16 hours, the DNA precipitate was removed, the cells washed and grown for 24 hours in complete medium. Cells were split 1:5, allowed to attach overnight and then cultured in DMEM with 5% FBS alone, supplemented with 10 μM norepinephrine (NE) or G418 (300 μg/ml). […]
After transfection of plasmid DNA into RAT-1 fibroblasts, no change in phenotype or focal cell overgrowth was observed after 4 weeks in culture in the absence of added agonist (FIG. 1A). […] Agonist-induced foci represented approximately 15-25% of transfected clones with the number of G418 resistant colonies (40-60/dish) assessed in duplicate transfections. […]
FBS. The number of transformed foci were scored after 4 weeks of culture. […]
independent experiments which agreed within 25%; nd = not determined.

α1B ADR = target: T1, α1B ADR (Mesocricetus auratus, UniProt P18841); test: Ligand binding on membranes of RAT-1 fibroblast cell lines expressing the α1B ADR; design: species or system hamster; conditions: competition with 100 pM [125I] HEAT; membranes, two clones; read-out: NE Ki
T1 construct: expressed in transfected cells; host or cells: RAT-1 fibroblasts (vector pZIP-NeoSV(X)1), focus-derived, G418-selected lines
T1 sequence (P18841 1-515): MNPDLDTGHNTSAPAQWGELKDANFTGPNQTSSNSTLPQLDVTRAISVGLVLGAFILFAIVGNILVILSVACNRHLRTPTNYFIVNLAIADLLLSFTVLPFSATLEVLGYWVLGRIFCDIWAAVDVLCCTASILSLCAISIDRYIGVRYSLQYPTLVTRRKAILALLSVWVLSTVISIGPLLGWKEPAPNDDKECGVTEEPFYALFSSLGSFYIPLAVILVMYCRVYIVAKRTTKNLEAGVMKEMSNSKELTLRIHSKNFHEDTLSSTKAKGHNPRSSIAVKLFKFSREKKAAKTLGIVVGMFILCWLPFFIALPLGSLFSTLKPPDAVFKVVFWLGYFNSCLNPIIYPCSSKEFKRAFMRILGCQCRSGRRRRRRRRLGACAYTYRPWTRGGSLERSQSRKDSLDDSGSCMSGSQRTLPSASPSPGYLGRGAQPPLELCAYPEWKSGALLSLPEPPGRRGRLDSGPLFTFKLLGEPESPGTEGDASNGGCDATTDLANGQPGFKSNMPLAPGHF
Procedure: In Table 3, RAT-1 fibroblast cell lines transfected with expression vector alone or derived from transformed foci (α1B ADR or α1B ADR mutant) were selected with G418 (300 μg/ml). Ligand binding was performed on membranes prepared from two clones of each in accordance with known techniques (S. Cotecchia et al., Life Sci. 37, 2389 (1986)). For saturation binding analysis, [^125 ] HEAT concentrations ranged from 10 to 500 pM, nonspecific binding was determined using 1 μM prazosin; in competition experiments, the radioligand concentration was 100 pM. Ligand binding parameters were determined using computerized iterative nonlinear regression analysis (P. Munson, Methods in Enzymol. 92, 5432 (1983)). For assessment of receptor coupling to PI hydrolysis, cells were plated in 30 mm dishes, and labeled overnight with 3 μCi/ml of myo-[2-^3 II(N)]-inositol (1Ci=37 GBq; NEN Research Products) in DMEM containing 3.3% FBS in accordance with known techniques (S. Cotecchia et al., Proc. Natl. Acad. Sci. USA 87, 2896 (1990)). After 40 minute stimulation of cells with 10 μM norepinephrine (NE), inositol phosphates were extracted, and separated on AG 1-X8 anion exchange columns (BioRad Labs) in accordance with known techniques (S. Cotecchia et al., Proc. Natl. Acad. Sci. USA 87, 2896 (1990)). Total inositol phosphates were eluted with 1M ammonium formate/0.1M formic acid. Rmax indicates the percentage increase of total labeled inositol phosphates over basal levels following NE stimulation.

α1B -ADR = conditions: NE alone, serum free medium; data not shown

NC[C@H](O)c1ccc(O)c(O)c1 [NE, norepinephrine]
Agonist-induced foci as share of transfected clones ([1]; RAT-1, relative to number of G418 resistant colonies (40-60/dish)): 15-25% | Foci No. +NE ([1]; RAT-1 transfected with α1B ADR, 10 μM NE supplemented daily, 5% FBS, initially transfected cells (Table 1)): 8 | Foci No. +NE ([1]; focus derived RAT-1 cell lines, α1B ADR, 10 μM NE, 3 weeks of growth, two clones (Table 2)): 75 and 80 | Foci No. +NE [2]: 180 | Ki (α1B ADR): 5.82 µM and 5.33 µM | increase in DNA synthetic activity (α1B -ADR): 11 fold
